Assay: Agonist activity at human sensory neuron-specific G-protein coupled receptor expressed in HEK293 cells assessed as intracellular calcium mobilization by FLIPR
Type: functional, cell-based

EC50 [nM]	Structure (SMILES)
2800	CC(C)[C@@H](NC(=O)[C@@H]1CCCN1C(=O)[C@H](Cc1ccc(Br)cc1)NC(=O)[C@@H](C)NC=O)C(=O)N[C@H](C(=O)N[C@H](Cc1c[nH]c2ccccc12)C(=O)N[C@@H](CCCNC(=N)N)C(=O)N[C@H](CS(=O)(=O)O)C(=O)N[C@@H]1C(=O)N(C)[C@@H](CCC(N)=O)C(=O)N[C@H](C(C)C)C(=O)N2CCC[C@H]2C(=O)N[C@H](CC(=O)O)C(=O)O[C@@H]1C)C(C)(C)C [POLYDISCAMIDE D]
1260	CCC(C)(C)[C@H](NC(=O)[C@H](NC(=O)[C@@H]1CCCN1C(=O)[C@H](Cc1ccc(Br)cc1)NC(=O)[C@@H](C)NC=O)C(C)(C)C)C(=O)N[C@H](Cc1c[nH]c2ccccc12)C(=O)N[C@@H](CCCNC(=N)N)C(=O)N[C@H](CS(=O)(=O)O)C(=O)N[C@@H]1C(=O)N(C)[C@@H](CCC(N)=O)C(=O)N[C@H](C(C)C)C(=O)N2CCC[C@H]2C(=O)N[C@H](CC(=O)O)C(=O)O[C@@H]1C [POLYDISCAMIDE B]
3570	CCC(C)(C)[C@H](NC(=O)[C@H](NC(=O)[C@@H]1CCCN1C(=O)[C@H](Cc1ccc(Br)cc1)NC(=O)[C@@H](C)NC=O)C(C)C)C(=O)N[C@H](Cc1c[nH]c2ccccc12)C(=O)N[C@@H](CCCNC(=N)N)C(=O)N[C@H](CS(=O)(=O)O)C(=O)N[C@@H]1C(=O)N(C)[C@@H](CCC(N)=O)C(=O)N[C@H](C(C)C)C(=O)N2CCC[C@H]2C(=O)N[C@H](CC(=O)O)C(=O)O[C@@H]1C [POLYDISCAMIDE C]

Reference: ChEMBL document CHEMBL1143076, “Polydiscamides B-D from a marine sponge Ircinia sp. as potent human sensory neuron-specific G protein coupled receptor agonists” (J Nat Prod, 2008)
